# Patent publication US4018754A, “Novel polypeptides having ACTH-like action” (Shionogi & Co., Ltd., priority 1974, dated 1977)
# Read-outs that look alike come from different tables or passages of the source. Where a SMILES comes first, the peptide text is derived from it. Where no end group is shown, it is not given here. [ ]: non-standard residue; d: D form. Aib = CC(C)(N)C(=O)O
# Legend:
# rats [1] = assay: Protracted action: time course of plasma 11-OHCS level after i.m. or i.v. injection; format: in vivo; conditions: rats 100-120 g, 5 μg/rat intramuscularly or intravenously
# Procedure: The protracted action of the present polypeptides, e.g., [Aib^1,Lys^17,18,19 ]--ACTH(1-19)--NH2, was studied using rats weighing 100-120 g. Synthetic human ACTH, Cortrosyn--Z^R (zinc complex suspension of ACTH(1-24)--OH)and [Gly^1 ]--ACTH(1-18)--NH2 were used for comparison. The petides were intramuscularly or intravenously injected into rats at a dose of 5 μg/rat, and then the production of 11-hydroxycorticosteroids (11-OHCS) was determined. Time course of 11-OHCS level in the plasma when the peptides were administered intramuscularly and intravenously is shown in FIG. 2, respectively. […] Cortrosyn-Z is the only ACTH preparation which has been used for therapeutical purpose, though it has rather strong melanocyte stimulating activity (c.f. Table 1). […] In FIG. 2, Cortrosyn-Z (suspension of a zinc complex of ACTH(1-24)--OH) is not shown, because the suspension cannot be used through intravenous route.
# hypophysectomized rat [2] = test system: hypophysectomized rat
# hypophysectomized rat [3] = test system: hypophysectomized rat; remark: listed apart in the source
# Procedure: The adrenal-stimulating activity by the intramuscular administration to hypophysectomized rat was also determined, where a peptide preparation was injected into the thigh muscle and a blood sample was collected from the abdominal aorta 30 minutes after the injection. Throughout the experiment, the USP Corticotropin Reference Standard was used as a standard and the production of 11-hydroxycorticosteroids was determined by the fluorophotometric method of Peterson [J. Biol. Chem. 225 25 (1975)].
# rats [4] = conditions: i.m. for 2 days
# Procedure: The effect on adrenal growth and thymus involution was determined in the following manner: peptides were intramuscularly injected into rats weighing 100-150 g at a dose of 20μg and 100 μg/rat/day for 2 days, respectively. The rats were then submitted to autopsy 24 hours after the last injection, and then the adrenal and thymus were weighed respectively.
# Procedure for melanocyte: The in vivo melanocyte-stimulating activity was determined according to the method of A. Tanaka described in Endocrinol.
Compound,Protracted adrenal-stimulating action (time course of plasma 11-OHCS level) (rats [1]),"Adrenal-stimulating activity i.v. (relative potency) (hypophysectomized rat [2]; rat, in vivo, iv)","Melanocyte-stimulating activity in vivo (b), relative potency (melanocyte)","Adrenal-stimulating activity i.m. (relative potency) (hypophysectomized rat [3]; rat, in vivo)","Protracted adrenal-stimulating action (time course of plasma 11-OHCS level) (rats [1]; Lys^17,18,19 ]--ACTH(1-19)--NH2)",effects on adrenal growth and thymus involution (in words) (rats [4]),"Adrenal-stimulating activity i.v. (relative potency) (hypophysectomized rat [2]; hypophysectomized rat, femoral vein injection, blood sample 30 minutes after injection, USP Corticotropin Reference Standard as standard)","Adrenal-stimulating activity i.m. (relative potency) (hypophysectomized rat [3]; hypophysectomized rat, thigh muscle injection, blood sample 30 minutes after injection, USP Corticotropin Reference Standard as standard)"
"CSCC[C@H](NC(=O)[C@H](CO)NC(=O)[C@H](Cc1ccc(O)cc1)NC(=O)C(C)(C)N)C(=O)N[C@@H](CCC(=O)O)C(=O)N[C@@H](Cc1c[nH]cn1)C(=O)N[C@@H](Cc1ccccc1)C(=O)N[C@@H](CCCNC(=N)N)C(=O)N[C@@H](Cc1c[nH]c2ccccc12)C(=O)NCC(=O)N[C@@H](CCCCN)C(=O)N1CCC[C@H]1C(=O)N[C@H](C(=O)NCC(=O)N[C@@H](CCCCN)C(=O)N[C@@H](CCCCN)C(=O)N[C@@H](CCCCN)C(=O)N[C@@H](CCCCN)C(=O)N[C@@H](CCCCN)C(N)=O)C(C)C [[Aib^1, Lys^17,18,19]--ACTH(1-19)-- NH2] (H-[Aib]YSMEHFRWGKPVGKKKKK-NH2)",protracted to almost the same extent as that produced by Cortrosyn-Z,,,,,,,
"CSCC[C@H](NC(=O)[C@H](CO)NC(=O)[C@H](Cc1ccc(O)cc1)NC(=O)C(C)(C)N)C(=O)N[C@@H](CCC(=O)O)C(=O)N[C@@H](Cc1c[nH]cn1)C(=O)N[C@@H](Cc1ccccc1)C(=O)N[C@@H](CCCNC(=N)N)C(=O)N[C@@H](Cc1c[nH]c2ccccc12)C(=O)NCC(=O)N[C@@H](CCCCN)C(=O)N1CCC[C@H]1C(=O)N[C@H](C(=O)NCC(=O)N[C@@H](CCCCN)C(=O)N[C@@H](CCCCN)C(=O)N[C@@H](CCCCN)C(=O)N[C@@H](CCCCN)C(=O)N[C@@H](CCCCN)C(=O)N[C@@H](CCCCN)C(N)=O)C(C)C [[Aib^1,Lys^17,18,19,20]-ACTH(1-20)-NH2, Aib--Tyr--Ser--Met--Glu--His--Phe--Arg--Trp--Gly--Lys--Pro--Val--Gly--Lys- -Lys--Lys--Lys--Lys--Lys--NH2] (H-[Aib]YSMEHFRWGKPVGKKKKKK-NH2)",,6.3,0.15,10.7,,,,
"CSCC[C@H](NC(=O)[C@H](CO)NC(=O)[C@H](Cc1ccc(O)cc1)NC(=O)C(C)(C)N)C(=O)N[C@@H](CCC(=O)O)C(=O)N[C@@H](Cc1c[nH]cn1)C(=O)N[C@@H](Cc1ccccc1)C(=O)N[C@@H](CCCNC(=N)N)C(=O)N[C@@H](Cc1c[nH]c2ccccc12)C(=O)NCC(=O)N[C@@H](CCCCN)C(=O)N1CCC[C@H]1C(=O)N[C@H](C(=O)NCC(=O)N[C@@H](CCCCN)C(=O)N[C@@H](CCCCN)C(=O)N[C@@H](CCCCN)C(=O)N[C@@H](CCCCN)C(=O)N[C@@H](CCCCN)C(N)=O)C(C)C [[Aib^1,Lys^17,18,19]-ACTH(1-19)-NH2, Aib--Tyr--Ser--Met--Glu--His--Phe--Arg--Trp--Gly--Lys--Pro--Val--Gly--Lys- -Lys--Lys--Lys--Lys--NH2] (H-[Aib]YSMEHFRWGKPVGKKKKK-NH2)",,5.7,0.11,7.8,very protracted action,,,
"CSCC[C@H](NC(=O)[C@H](CO)NC(=O)[C@H](Cc1ccc(O)cc1)NC(=O)C(C)(C)N)C(=O)N[C@@H](CCC(=O)O)C(=O)N[C@@H](Cc1c[nH]cn1)C(=O)N[C@@H](Cc1ccccc1)C(=O)N[C@@H](CCCNC(=N)N)C(=O)N[C@@H](Cc1c[nH]c2ccccc12)C(=O)NCC(=O)N[C@@H](CCCCN)C(=O)N1CCC[C@H]1C(=O)N[C@H](C(=O)NCC(=O)N[C@@H](CCCCN)C(=O)N[C@@H](CCCCN)C(=O)N[C@@H](CCCCN)C(=O)N[C@@H](CCCCN)C(N)=O)C(C)C [[Aib^1,Lys^17,18]-ACTH(1-18)-NH2, [Aib^1,Lys^17,18]--ACTH(1-18)--NH2, reference compound] (H-[Aib]YSMEHFRWGKPVGKKKK-NH2)",,9.3,0.82,9.4,,,,
"CSCC[C@H](NC(=O)[C@H](CO)NC(=O)[C@H](Cc1ccc(O)cc1)NC(=O)C(C)(C)N)C(=O)N[C@@H](CCC(=O)O)C(=O)N[C@@H](Cc1c[nH]cn1)C(=O)N[C@@H](Cc1ccccc1)C(=O)N[C@@H](CCCNC(=N)N)C(=O)N[C@@H](Cc1c[nH]c2ccccc12)C(=O)NCC(=O)N[C@@H](CCCCN)C(=O)N1CCC[C@H]1C(=O)N[C@H](C(=O)NCC(=O)N[C@@H](CCCCN)C(=O)N[C@@H](CCCCN)C(=O)N[C@@H](CCCNC(=N)N)C(=O)N[C@@H](CCCNC(=N)N)C(N)=O)C(C)C [[Aib^1]-ACTH(1-18)-NH2, [Aib^1]--ACTH(1-18)--NH2, reference compound] (H-[Aib]YSMEHFRWGKPVGKKRR-NH2)",,4.1,1.00,9.9,,,,
"GYSMEHFRWGKPVGKKRR-NH2 [[Gly^1]-ACTH(1-18)-NH2, [Gly^1]--ACTH(1-18)--NH2, reference compound]",,1.0,0.11,1.0,,very weak,,
"Native ACTH: native corticotropin (ACTH), native hormone used for comparison (SYSMEHFRWGKPVGKKRRPVKVYPNGAEDESAEAFPLEF; Corticotropin; UniProt P01189 138-176, looked up)",,,,,,very weak,1.0,4.0
